This note sets out measurements from PubChem BioAssay (NCI).

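1) Cells in 96-well plates. 2) Compound, 48 h, 5 concentrations. 3) Linear interpolation between surrounding doses. 4) Unreached endpoint = highest concentration. At the GI50, growth is halved. The concentration for full growth arrest is given as TGI.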

Assay in all cases: NCI tumour cell line growth inhibition, 48 h
The subject of assay [1] is A498 renal.
Assay [2] has as its system A549 NSCLC.
In assay [3] the test system is HCT-15 colon.
The test system of assay [4] is HL-60(TB) leukemia.
The subject of assay [5] is HOP-62 NSCLC.
The subject of assay [6] is KM12 colon.
In assay [7] the test system is NCI-H460 lung.
The test system of assay [8] is SF-539 CNS.
The test system of assay [9] is SK-MEL-28 melanoma.
The subject of assay [10] is SK-OV-3 ovarian.

On to `COc1cc(C2C3=C(COC3=O)N(CCO)c3cc4c(cc32)CCC4)cc(OC)c1O` (stereo not given), for which the GI50 in [1] was 0.131 µM; in assay [2], 0.499 µM; in assay [3], 1.09 µM; in assay [4], 0.0874 µM; in [5] it was 0.213 µM; in assay [6], 0.121 µM. Further, the GI50 in assay [7] is 0.114 µM; in assay [8] it was 0.136 µM; in assay [9], 0.213 µM; in assay [10] it was 0.168 µM. Besides, the TGI in assay [1] is 5.64 µM; in assay [2] it was > 32.5 µM; in [3], > 32.5 µM; in assay [4] it was 0.448 µM; in assay [5], > 32.5 µM; in assay [6], 5.52 µM. Moreover, the TGI in assay [7] was 6.65 µM; in assay [8] it was > 32.5 µM; in assay [9], > 32.5 µM; in [10], > 32.5 µM.
Consider `Oc1cc2cc(-c3ccccc3)[nH]c2c2ccccc12`, for which the TGI in [1], in [2], in assay [3], in assay [4], in assay [5] and in assay [6] was > 100 µM each time. The TGI is 72.1 µM in assay [7], 97.1 µM in assay [8], > 100 µM in assay [9] and > 100 µM in assay [10].
Consider `CC1=CC2=C(C)C3(CC3)[C@@](C)(O)C(=O)C2=C1`, for which the TGI in assay [1] is 0.505 µM; in assay [2], > 0.975 µM; in [3], 0.454 µM; in [4], 0.587 µM; in assay [5], 0.356 µM; in assay [6] it was > 0.918 µM. Also, the TGI in assay [7] was 0.431 µM; in [8], 0.47 µM; in assay [9], 0.394 µM; in [10], 0.799 µM.
As to `COC(=O)c1c(C)oc2ccc(OC(C)=O)cc12`, the TGI in assay [1], in [2], in assay [3], in assay [4], in assay [5] and in assay [6] was > 100 µM each time. The TGI in assay [7], in assay [8], in assay [9] and in assay [10] was > 100 µM throughout.
For the compound `CCOP(=O)(OCC)/C(C#N)=C\c1cccc2ccccc12`, the TGI in assay [1] is 98.7 µM; in [2] it was > 100 µM; in assay [3] it was > 100 µM; in assay [4], > 62.8 µM; in [5], > 100 µM; in [6], > 100 µM. For the same compound, the TGI in [7], in assay [8], in [9] and in assay [10] was > 100 µM each time.
As to `C[C@@H](NC(=O)Cc1cc(F)cc(F)c1)C(=O)N[C@@]1(C)N=C(c2ccccc2)c2ccccc2N(C)C1=O`, the GI50 in assay [1] was 1.13 µM; in [2] it was 66.1 µM; in assay [3] it was > 78.1 µM; in [4], 10.6 µM; in assay [5] it was 64.7 µM; in assay [6] it was 41.3 µM. For the same compound, the GI50 in assay [7] was 40.4 µM; in [8], > 56 µM; in [9], > 100 µM; in assay [10] it was > 100 µM. Besides, the TGI was 42.6 µM in [1]; > 100 µM in [2]; > 100 µM in assay [3]; > 55.4 µM in assay [4]; > 100 µM in assay [5]; > 100 µM in [6]. In addition, the TGI in assay [7], in assay [8], in assay [9] and in assay [10] was > 100 µM throughout.
Turning to `CC1(CC(=O)O)OC2CCCCCC2O1` (stereo not given) (tested in a mixture with another compound), the TGI in assay [1], in [2], in assay [3], in [4], in assay [5] and in assay [6] was > 100 µM each time. For the same compound, the TGI in [7], in [8], in assay [9] and in [10] was > 100 µM throughout.
Regarding `Cc1ccc([P+](Cc2ccc([N+](=O)[O-])cc2)(c2ccc(C)cc2)c2ccc(C)cc2)cc1`, the GI50 is 2.54 µM in assay [1]; 14.4 µM in [2]; 18.2 µM in assay [3]; 0.997 µM in assay [4]; 10.4 µM in [5]; 2.44 µM in [6]. The GI50 in assay [7] was 4.26 µM; in assay [8] it was 4.06 µM; in assay [9], 2.82 µM; in [10], 12 µM. The TGI in [1] was 12.7 µM; in [2], 57 µM; in [3], 46.2 µM; in assay [4] it was 3.14 µM; in assay [5], 23.8 µM; in assay [6], 10.2 µM. Also, the TGI in [7] came to 16.8 µM; in assay [8] it was 15.9 µM; in assay [9], 12.9 µM; in [10], 25.2 µM.
Consider `COc1cc2oc3ccccc3c(=O)c2cc1CSc1ccccc1N`, for which the TGI in [1] is > 73.5 µM; in [2], > 100 µM; in assay [3] it was > 100 µM; in [4], 64.8 µM; in assay [5], > 93.3 µM; in assay [6], 84 µM. In addition, the TGI in [7] was > 100 µM; in [8], > 100 µM; in assay [9] it was 98.2 µM; in [10], > 100 µM.
Regarding `CC(C)(C)n1cc(-c2ccnc(NCCNS(=O)(=O)c3ccc(Br)cc3)c2)c(-c2cccc(O)c2)n1`, the GI50 in assay [1] is 1.37 µM; in assay [2], 2.19 µM; in assay [3] it was 1.35 µM; in assay [4] it was 0.581 µM; in assay [5], 1.5 µM; in assay [6], 1.99 µM. The GI50 was 1.93 µM in assay [7], 1.54 µM in [8], 1.75 µM in [9] and 2.29 µM in assay [10]. The TGI in assay [1] turned out to be 3.19 µM; in assay [2] it was 6.5 µM; in assay [3] it was 2.93 µM; in [4] it was 2.88 µM; in [5], 3 µM; in assay [6], 4.32 µM. In addition, the TGI in assay [7] worked out at 3.71 µM; in assay [8] it was 3.11 µM; in assay [9], 3.26 µM; in [10], 6.1 µM.
Take `Cc1cc(CS(=O)(=O)/C=C/c2ccccc2[N+](=O)[O-])c(CS(=O)(=O)/C=C/c2ccccc2[N+](=O)[O-])cc1C`: the TGI in assay [1] is 70.9 µM; in assay [2], > 100 µM; in assay [3], > 100 µM; in [4], > 100 µM; in assay [5], 49.4 µM; in assay [6], > 100 µM. For the same compound, the TGI in [7] was > 100 µM; in assay [8] it was 35.9 µM; in assay [9] it was > 100 µM; in [10], 37.5 µM.
`COc1cc[nH]c1/C=C1\C(=O)Nc2ccc(F)c(C#CC3(O)CCOCC3)c21`: the GI50 is 0.573 µM in assay [1]; 0.536 µM in assay [2]; 0.481 µM in assay [3]; 0.686 µM in [4]; 0.878 µM in [5]; 0.0104 µM in assay [6]. The GI50 in assay [7] is 0.637 µM; in assay [8], 0.489 µM; in assay [9], 0.677 µM; in [10], 0.441 µM. The TGI is 1.67 µM in [1]; 2.25 µM in assay [2]; > 15.3 µM in [3]; 1.6 µM in [4]; > 10.4 µM in [5]; 1.92 µM in [6]. Further, the TGI in [7] was 2.7 µM; in assay [8], 1.03 µM; in assay [9], 3.11 µM; in [10], > 25 µM.
With `CC(CS(=O)(=O)Cc1ccccc1)C(N)=O` (stereo not given), the TGI in assay [1], in assay [2], in [3], in [4], in [5] and in [6] was > 100 µM throughout. For the same compound, the TGI in [7], in assay [8], in [9] and in assay [10] was > 100 µM in each case.
Regarding `Cc1c(C(C)C)cc(OCCO)cc1C(C)C`, the TGI in assay [1] is 96.6 µM; in assay [2], > 100 µM; in [3] it was > 100 µM; in assay [4] it was 56.9 µM; in assay [5], > 100 µM; in [6], > 100 µM. Moreover, the TGI in assay [7], in assay [8], in assay [9] and in assay [10] was > 100 µM in each case.
In the case of `Clc1ccc2c(Cl)ncnc2c1`, the TGI in assay [1], in assay [2], in [3], in assay [4], in assay [5] and in [6] was > 100 µM in each case. Further, the TGI in assay [7], in assay [8], in [9] and in assay [10] was > 100 µM throughout.
